Source: patent US5086042A, “Peptides with sulfate ester groups” (Fisons Corporation, priority 1989, dated 1992)
Non-standard residues stand in square brackets, D forms with d. Residues, ends and D or L forms follow the SMILES beside them. sY = N[C@@H](Cc1ccc(OS(=O)(=O)O)cc1)C(=O)O

Tested on: Male Sprague-Dawley rats
Type: in vivo
Conditions: rat, intraperitoneal; for % FEEDING INHIBITION 0.5 hr / % FEEDING INHIBITION 3 hr: 30 μg/kg, vs saline controls; for % FEEDING INHIBITION 0.5 hr / % FEEDING INHIBITION 0.5 hr (values marked *): 0.5 hr feeding period; for % FEEDING INHIBITION 3 hr / % FEEDING INHIBITION 3 hr (values marked *): 3 hr feeding period; for % FEEDING INHIBITION 3 hr: IA means inactive; for % FEEDING INHIBITION 3 hr (values marked *) / % FEEDING INHIBITION 0.5 hr (values marked *): 300 μg/kg, <10% inhibition at 30 μg/kg
Description: The peptides of this invention have the ability to inhibit feeding activity in mammals. As a result they have utility in the prevention and treatment of obesity.
Male Sprague-Dawley rats (weighing 300-350 g) are individually caged and maintained on a 12 hr. light, dark cycle and trained for at least 14 days to feed during a three hr period of the dark cycle but not the 21 hours preceding that three hr period. The day of the study, rats are dosed intraperitoneally with saline (controls) or test compound (dissolved in saline; usually at a concentration of 0.3 to 300 micrograms of test compound per kg of rat weight). Food is introduced 10 minutes after administration of saline or test compound. […] The % feeding inhibition for the 1/2 hr and 3 hr feeding periods obtained by administering a dose of 30 μg/kg of test compound is given in Table 2 for CCK-8 and various compounds of the invention. For example, the % feeding inhibition obtained with CCK-8 (first line of Table 2) was 70% for the 1/2 hr feeding period and 25% for the 3-hour period.

SMILES | % FEEDING INHIBITION 0.5 hr [%] | % FEEDING INHIBITION 3 hr [%] | % FEEDING INHIBITION 3 hr (values marked *) [%] | % FEEDING INHIBITION 0.5 hr (values marked *) [%]
CSCC[C@H](NC(=O)[C@H](Cc1ccc(OS(=O)(=O)O)cc1)NC(=O)[C@@H](N)CC(=O)O)C(=O)NCC(=O)N[C@@H](Cc1c[nH]c2ccccc12)C(=O)N[C@@H](CCSC)C(=O)N[C@@H](CC(=O)O)C(=O)N[C@@H](Cc1ccccc1)C(N)=O [CCK-8, Asp-Tyr(SO3 H)-Met-Gly-Trp-Met-Asp-Phe-NH2, reference compound] | 70 | 25 |  | 
CSCC[C@H](NC(=O)[C@H](Cc1ccc(OS(=O)(=O)O)cc1)NC=O)C(=O)NCC(=O)N[C@@H](Cc1c[nH]c2ccccc12)C(=O)N[C@@H](CCSC)C(=O)N[C@@H](CC(=O)O)C(=O)N[C@@H](Cc1ccccc1)C(N)=O [For-Tyr(SO3 H)-Met-Gly-Trp-Met-Asp-Phe-NH2] (HELM PEPTIDE1{[O=C[*:2]].[O=C([C@H](Cc1ccc(OS(=O)(=O)O)cc1)N[*:1])[*:2]].M.G.W.M.D.F.[am]}$$$$V2.0) | 100 | 66 |  | 
CSCC[C@H](NC(=O)[C@H](Cc1ccc(OS(=O)(=O)O)cc1)NC(=O)[C@@H](N)CC(=O)O)C(=O)NCC(=O)N[C@@H](Cc1c[nH]c2ccccc12)C(=O)N[C@@H](CCSC)C(=O)N[C@@H](CC(=O)O)C(=O)N[C@@H](Cc1ccc(Cl)cc1)C(N)=O [H-As-Tyr(SO3 H)-Met-Gly-Trp-Met-Asp-Phe(4-Cl)-NH2] | 54 |  | 28 | 
CSCC[C@H](NC(=O)[C@H](Cc1c[nH]c2ccccc12)NC(=O)CNC(=O)[C@@H](CCSC)NC(=O)[C@H](Cc1ccc(OS(=O)(=O)O)cc1)NC(=O)[C@@H](N)CC(=O)O)C(=O)N[C@@H](CC(=O)O)C(=O)N[C@@H](Cc1ccccc1)C(N)=O [H-Asp-Tyr(SO3 H)-DMet-Gly-Trp-Met-Asp-Phe-NH3] | 17 |  |  | 
CC[C@H](C)[C@H](NC(=O)[C@H](Cc1ccc(OS(=O)(=O)O)cc1)NC(=O)[C@@H](N)CC(=O)O)C(=O)NCC(=O)N[C@@H](Cc1c[nH]c2ccccc12)C(=O)N[C@H](C(=O)N[C@@H](CC(=O)O)C(=O)N[C@@H](Cc1ccccc1)C(N)=O)[C@@H](C)CC [H-Asp-Tyr(SO3 H)-Ile-Gly-Trp-Ile-Asp-Phe-NH2] (HELM PEPTIDE1{D.[O=C([C@H](Cc1ccc(OS(=O)(=O)O)cc1)N[*:1])[*:2]].I.G.W.I.D.F.[am]}$$$$V2.0) | 85 | 20 |  | 
CC(C)C[C@H](NC(=O)[C@H](Cc1ccc(OS(=O)(=O)O)cc1)NC(=O)[C@@H](N)CC(=O)O)C(=O)NCC(=O)N[C@@H](Cc1c[nH]c2ccccc12)C(=O)N[C@@H](CC(C)C)C(=O)N[C@@H](CC(=O)O)C(=O)N[C@@H](Cc1ccccc1)C(N)=O [H-Asp-Tyr(SO3 H)-Leu-Gly-Trp-Leu-Asp-Phe-NH2] | 89 | 24 |  | 
NCCCC[C@H](NC(=O)[C@H](Cc1ccc(OS(=O)(=O)O)cc1)NC(=O)[C@@H](N)CC(=O)O)C(=O)NCC(=O)N[C@@H](Cc1c[nH]c2ccccc12)C(=O)N[C@@H](CCCCN)C(=O)N[C@@H](CC(=O)O)C(=O)N[C@@H](Cc1ccccc1)C(N)=O [H-Asp-Tyr(SO3 H)-Lys-Gly-Trp-Lys-Asp-Phe-NH2] (HELM PEPTIDE1{D.[O=C([C@H](Cc1ccc(OS(=O)(=O)O)cc1)N[*:1])[*:2]].K.G.W.K.D.F.[am]}$$$$V2.0) |  |  |  | 45
CSCC[C@H](NC(=O)[C@H](Cc1c[nH]c2ccccc12)NC(=O)[C@@H](C)NC(=O)[C@H](CCSC)NC(=O)[C@H](Cc1ccc(OS(=O)(=O)O)cc1)NC(=O)[C@@H](N)CC(=O)O)C(=O)N[C@@H](CC(=O)O)C(=O)N[C@@H](Cc1ccccc1)C(N)=O [H-Asp-Tyr(SO3 H)-Met-DAla-Trp-Met-Asp-Phe-NH2] (HELM PEPTIDE1{D.[O=C([C@H](Cc1ccc(OS(=O)(=O)O)cc1)N[*:1])[*:2]].M.[dA].W.M.D.F.[am]}$$$$V2.0) | 16 |  | 18 | 
CSCC[C@H](NC(=O)[C@H](Cc1ccc(OS(=O)(=O)O)cc1)NC(=O)[C@@H](N)CC(=O)O)C(=O)NCC(=O)N[C@H](Cc1c[nH]c2ccccc12)C(=O)N[C@@H](CCSC)C(=O)N[C@@H](CC(=O)O)C(=O)N[C@@H](Cc1ccccc1)C(N)=O [H-Asp-Tyr(SO3 H)-Met-Gly-DTrp-Met-Asp-Phe-NH2] |  |  |  | 42
CSCC[C@H](NC(=O)[C@H](Cc1ccc(OS(=O)(=O)O)cc1)NC(=O)[C@@H](N)CC(=O)O)C(=O)NCC(=O)N[C@@H](Cc1c[nH]c2ccccc12)C(=O)N[C@H](CCSC)C(=O)N[C@@H](CC(=O)O)C(=O)N[C@@H](Cc1ccccc1)C(N)=O [H-Asp-Tyr(SO3 H)-Met-Gly-Trp-DMet-Asp-Phe-NH2] |  |  |  | 30
CSCC[C@H](NC(=O)[C@H](Cc1ccc(OS(=O)(=O)O)cc1)NC(=O)[C@@H](N)CC(=O)O)C(=O)NCC(=O)N[C@@H](Cc1c[nH]c2ccccc12)C(=O)N[C@@H](CCSC)C(=O)N[C@@H](CC(N)=O)C(=O)N[C@@H](Cc1ccccc1)C(N)=O [H-Asp-Tyr(SO3 H)-Met-Gly-Trp-Met-Asn-Phe-NH2] (HELM PEPTIDE1{D.[O=C([C@H](Cc1ccc(OS(=O)(=O)O)cc1)N[*:1])[*:2]].M.G.W.M.N.F.[am]}$$$$V2.0) |  |  |  | 43
CSCC[C@H](NC(=O)[C@H](Cc1ccc(OS(=O)(=O)O)cc1)NC(=O)[C@@H](N)CC(=O)O)C(=O)NCC(=O)N[C@@H](Cc1c[nH]c2ccccc12)C(=O)N[C@@H](CCSC)C(=O)N[C@@H](CC(=O)O)C(=O)N[C@@H](Cc1ccc(C)cc1)C(N)=O [H-Asp-Tyr(SO3 H)-Met-Gly-Trp-Met-Asp-Phe(4-Me)-NH2] | 57 | 18 |  | 
CSCC[C@H](NC(=O)[C@H](Cc1ccc(OS(=O)(=O)O)cc1)NC(=O)[C@@H](N)CC(=O)O)C(=O)NCC(=O)N[C@@H](Cc1c[nH]c2ccccc12)C(=O)N[C@@H](CCSC)C(=O)N[C@@H](CC(=O)O)C(=O)N[C@@H](Cc1ccc(N)cc1)C(N)=O [H-Asp-Tyr(SO3 H)-Met-Gly-Trp-Met-Asp-Phe(4-NH2)-NH2] | 27 |  |  | 
CSCC[C@H](NC(=O)[C@H](Cc1ccc(OS(=O)(=O)O)cc1)NC(=O)[C@@H](N)CC(=O)O)C(=O)NCC(=O)N[C@@H](Cc1c[nH]c2ccccc12)C(=O)N[C@@H](CCSC)C(=O)N[C@@H](CC(=O)O)C(=O)N[C@@H](Cc1ccc([N+](=O)[O-])cc1)C(N)=O [H-Asp-Tyr(SO3 H)-Met-Gly-Trp-Met-Asp-Phe(4-NO2)-NH2] | 43 | 17 |  | 
CCNC(=O)[C@H](Cc1ccccc1)NC(=O)[C@H](CC(=O)O)NC(=O)[C@H](CCSC)NC(=O)[C@H](Cc1c[nH]c2ccccc12)NC(=O)CNC(=O)[C@H](CCSC)NC(=O)[C@H](Cc1ccc(OS(=O)(=O)O)cc1)NC(=O)[C@@H](N)CC(=O)O [H-Asp-Tyr(SO3 H)-Met-Gly-Trp-Met-Asp-Phe-NHEt] | 16 |  |  | 
COc1ccc(C[C@H](NC(=O)[C@H](CC(=O)O)NC(=O)[C@H](CCSC)NC(=O)[C@H](Cc2c[nH]c3ccccc23)NC(=O)CNC(=O)[C@H](CCSC)NC(=O)[C@H](Cc2ccc(OS(=O)(=O)O)cc2)NC(=O)[C@@H](N)CC(=O)O)C(N)=O)cc1 [H-Asp-Tyr(SO3 H)-Met-Gly-Trp-Met-Asp-Tyr(Me)-NH2] (H-D[sY]MGWMDY(Me)-NH2) |  |  |  | 72
CSCC[C@H](NC(=O)[C@H](Cc1ccc(OS(=O)(=O)O)cc1)NC(=O)[C@@H](N)CC(=O)O)C(=O)NCC(=O)N[C@@H](Cc1c[nH]c2ccccc12)C(=O)N[C@@H](CCSC)C(=O)N[C@H](CC(=O)O)C(=O)N[C@@H](Cc1ccccc1)C(N)=O [H-Asp-Tyr(SO3 H)-Met-Gly-Trp-Met-DAsp-Phe-NH2] | 32 |  | 15 | 
CSCC[C@H](NC(=O)[C@H](Cc1ccc(OS(=O)(=O)O)cc1)NC(=O)[C@@H](N)CC(=O)O)C(=O)NCC(=O)N[C@@H](Cc1c[nH]c2ccccc12)C(=O)N[C@@H](CCSC)C(=O)N[C@@H](CC(=O)O)C(=O)N[C@H](Cc1ccccc1)C(N)=O [H-Asp-Tyr(SO3 H)-Met-Gly-Trp-Met] | 46 |  | 14 | 
CSCC[C@H](NC(=O)[C@H](Cc1c[nH]c2ccccc12)NC(=O)CN(C)C(=O)[C@H](CCSC)NC(=O)[C@H](Cc1ccc(OS(=O)(=O)O)cc1)NC(=O)[C@@H](N)CC(=O)O)C(=O)N[C@@H](CC(=O)O)C(=O)N[C@@H](Cc1ccccc1)C(N)=O [H-Asp-Tyr(SO3 H)-Met-Sar-Trp-Met-Asp-Phe-NH2] |  |  |  | 55
CSCC[C@H](NC(=O)[C@H](Cc1ccc(OS(=O)(=O)O)cc1)NC(=O)[C@@H](N)CC(=O)O)C(=O)NCC(=O)N[C@@H](Cc1ccc2ccccc2c1)C(=O)N[C@@H](CCSC)C(=O)N[C@@H](CC(=O)O)C(=O)N[C@@H](Cc1ccccc1)C(N)=O [H-Asp-Tyr(SO3)-Met-Gly-Nal-Met-Asp-Phe-NH2] (HELM PEPTIDE1{D.[O=C([C@H](Cc1ccc(OS(=O)(=O)O)cc1)N[*:1])[*:2]].M.G.[O=C([C@H](Cc1ccc2ccccc2c1)N[*:1])[*:2]].M.D.F.[am]}$$$$V2.0) |  |  |  | 52
CNC(=O)[C@H](Cc1ccccc1)NC(=O)[C@H](CC(=O)O)NC(=O)[C@H](CCSC)NC(=O)[C@H](Cc1c[nH]c2ccccc12)NC(=O)CNC(=O)[C@H](CCSC)NC(=O)[C@H](Cc1ccc(OS(=O)(=O)O)cc1)NC(=O)[C@@H](N)CC(=O)O [H-Asp-Tyr(SO 3 H)-Met-Gly-Trp-Met-Asp-Phe-NHMe] |  |  |  | 13
